Test results published in the NIST ThermoML archive (doi:10.1016/j.jct.2015.07.047).

Settings: Liquid, Closed cell (Static) method

Cl[SiH2]Cl [dichlorosilane]
Settings | vapor or sublimation pressure [kPa]
313.36 K | 290.6
323.35 K | 384.1
333.19 K | 496.6
343.04 K | 631.7
352.98 K | 793.4
362.94 K | 982.4

Cl[Si](Cl)(Cl)Cl [silicon tetrachloride]
Settings | vapor or sublimation pressure [kPa]
318.27 K | 66.7
328.25 K | 94
338.31 K | 129.8
348.08 K | 172.9
358.17 K | 228.4
368.17 K | 295.3

Cl[SiH](Cl)Cl [trichlorosilane]
Settings | vapor or sublimation pressure [kPa]
313.34 K | 134.1
323.33 K | 183.5
333.17 K | 245
343 K | 321
352.96 K | 414.5
362.96 K | 528.8
